In patent US8828474B2, “Apparatus and methods for loading a drug eluting medical device” (Medtronic Vascular, Inc., priority 2009, dated 2014):

Assay: Solubility of sirolimus in solvents / dispersion media
Type: physicochemical
Procedure: Solution 524 is a homogeneous mixture in which therapeutic substance 112 dissolves within a solvent or a solvent mixture. In one embodiment, solution 524 includes a high-capacity solvent 528 which is an organic solvent that has a high capacity to dissolve therapeutic substance 112. High capacity as utilized herein is defined as an ability to dissolve therapeutic substance 112 at concentrations greater than 500 mg of substance per milliliter of solvent. Examples of high capacity drug dissolving solvents for sirolimus and similar substances include but are not limited to tetrahydrofuran (THF), di-chloromethane (DCM), chloroform, and di-methyl-sulfoxide (DMSO). In addition to the high-capacity solvent, solution 524 may include an excipient 526 in order to assist in drug elution. In one embodiment, excipient 526 may be a surfactant such as but not limited to sorbitan fatty acid esters such as sorbitan monooleate and sorbitan monolaurate, polysorbates such as polysorbate 20, polysorbate 60, and polysorbate 80, cyclodextrins such as 2-hydroxypropyl-beta-cyclodextrin and 2,6-di-O-methyl-beta-cyclodextrin, sodium dodecyl sulfate, octyl glucoside, and low molecular weight poly(ethylene glycol)s. In another embodiment, excipient 526 may be a hydrophilic agent such as but not limited to salts such as sodium chloride and other materials such as urea, citric acid, and ascorbic acid. […]

Question: For `CO[C@H]1C[C@@H]2CC[C@@H](C)[C@@](O)(O2)C(=O)C(=O)N2CCCC[C@H]2C(=O)O[C@H]([C@H](C)C[C@@H]2CC[C@@H](O)[C@H](OC)C2)CC(=O)[C@H](C)/C=C(\C)[C@@H](O)[C@@H](OC)C(=O)[C@H](C)C[C@H](C)/C=C/C=C/C=C/1C` [sirolimus], which solubility in hexane is on record?
Answer: The solubility in hexane was “insoluble”.
